In patent US12162934B2, “Gremlin-1 antagonist for the prevention and treatment of cancer” (UCB BIOPHARMA SRL, priority 2018, dated 2024):

B1: rhGrem1: rhGrem1 protein used to stimulate breast cancer cells (protein)
chain: KKKGSQGAIPPPDKAQHNDSEQTQSPQQPGSRNRGRGQGRGTAMPGEEVLESSQEALHVTERKYLKRDWCKTQPLKQTIHEEGCNSRTIINRFCYGQCNSFYIPRHIRKEEGSFQSCSFCKPKKFTTMMVTLNCPELQPPTKKKRVTRVKQCRCISIDLD

Columns and labels:
[1] = test system: MDA-MB-231 human breast cancer cells; assay: MDA-MB-231 breast cancer model in NSG mice (BLI); assay type: in vivo; conditions: vs AbA33, p>0.05
Method: MDA-MB-231: 5-week old NOD/SCiD/gamma (NSG) immunocompromised mice were subcutaneously (s.c) administered two 30 mg/kg doses of anti-Grem1 antibody UCB6114 or IgG control, AbA33, the week prior to tumour cell inoculation. 1×10^5 luciferase expressing MDA-MB-231 human breast cancer cells were injected systemically via the CA.
Treatment continued twice weekly for the duration of the study. At weekly intervals, mice were administered 150 mg/kg luciferin intraperitoneally (i.p) and imaged using the Xenogen IVIS Bioluminescence Imaging System, and tumour burden was quantitated using Living Image software. The study ended on day 13 and day 22 post-tumour cell injection for the PyMT-B01 and MDA-MB-231 models respectively, according to animal ethics requirements. Organs were dissected upon culling animals and BLI imaged ex vivo for analysis of tumour metastasis.

[2] = test system: PC-3 prostate cancer cells; assay: PC-3 prostate cancer model in NSG mice (BLI); assay type: in vivo, human; conditions: vs AbA33
Method: The PC-3 human prostate cancer cell line was obtained from ATCC (Manassas, VA, USA). The cell line expresses luciferase produced by retroviral expression of the SFG-NES-TGL vector (Ponomarev, V., et al. 2004). Cancer cells were cultured in RPMI1640 (Life Technologies, Australia) supplemented with 10% foetal bovine serum (FBS, Life Technologies, Australia), 100 IU/mL penicillin (Life Technologies, Australia), 100 μg/mL streptomycin (Life Technologies, Australia) and 25 mM HEPES (Life Technologies, Australia) at 37° C. in a 5% CO2 humidified atmosphere.
5-week old NOD.Cg-Prkd^scid Il2rg^tm1Wjl/SzJ (NSG) immunocompromised mice were subcutaneously (s.c) administered two 30 mg/kg doses of anti-Grem1 antibody (UCB6114) or IgG control, AbA33, the week prior to tumour cell inoculation. 5×10^5 luciferase expressing PC-3 […] prostate cancer cells were injected systemically via the caudal artery (CA).
Antibody treatment continued twice weekly for the duration of the study. A t weekly intervals, mice were administered 150 mg/kg luciferin intraperitoneally (i.p) and imaged using the Xenogen IVIS Bioluminescence Imaging System, and tumour burden was quantitated using Living Image software (PerkinElmer, MA, USA). At the end of each study, organs were dissected upon culling animals and BLI imaged ex vivo for analysis of tumour metastasis.

MDA-MB-231-TXSA cells = assay: Proliferation assay of MDA-MB-231-TXSA cells in hypoxia (luciferase); assay type: cell-based, human; conditions: rhGrem1 0-1000 ng/ml
Method: Luciferase expressing MDA-MB-231-TXSA cells were seeded in 96-well microtiter plates (1×10^4 cells/well). Cells were cultured either under normoxic or hypoxic conditions and allowed to adhere overnight. Cells were then serum starved for 6 hrs before treatment with increasing concentrations of rhGrem1 protein (0-1000 ng/ml). At 24 and 48 hr time points, luciferase expression was evaluated and used as a surrogate measure of cell number. Briefly, cells were washed in 1×PBS, and subsequently lysed in cell culture lysis buffer (Promega). Luciferase Assay Reagent (5 mM MgCl2, 30 mM HEPES, 150 μM ATP, […] Coenzyme A and 150 μg/mL D-luciferin (Biosynth AG, Staad, Switzerland)) was added to cell lysates, and luminescence was quantified immediately using a luminometer plate reader (Wallac 3000).

Row | Molecule | Mean tumour burden (BLI) ([1]; day 22) | Mean tumour burden for lung metastasis (ex vivo BLI) [1] | Whole animal tumour burden (BLI) ([2]; 30 mg/kg s.c. twice weekly) | Hindlimb tumour burden (ex vivo BLI) [2] | Liver tumour burden (ex vivo BLI) [2] | Lung tumour burden (ex vivo BLI) [2] | Maximal increase in MDA-MB-231-TXSA proliferation, hypoxic compared to normoxic conditions (MDA-MB-231-TXSA cells; 24 hr) [fold] | Maximal increase in MDA-MB-231-TXSA proliferation, hypoxic compared to normoxic conditions (MDA-MB-231-TXSA cells; 48 hr) [fold]
1 | UCB6114: novel anti-Grem1 neutralising monoclonal antibody | lower | reduction in mean tumour burden | significant reduction | downward trend | significant reduction | downward trend | – | –
2 | B1 | – | – | – | – | – | – | 1.5 | 1.7
